Literature values, collected in patent US5994297A, “Therapy for Staphylococcus aureus” (Eli Lilly and Company, priority 1998, dated 1999).

Tested on: Staphylococcus aureus strain "Mu50"
Conditions: Staphylococcus aureus strain Mu50 (MRSA, reduced glycopeptide sensitivity); Hiramatsu et al., J. of Antimicrobial Chemotherapy, 1997, 40, 135-146

Compound: CN[C@H](CC(C)C)C(=O)N[C@H]1C(=O)N[C@@H](CC(N)=O)C(=O)N[C@H]2C(=O)N[C@H]3C(=O)N[C@H](C(=O)N[C@H](C(=O)O)c4cc(O)cc(O)c4-c4cc3ccc4O)[C@H](O)c3ccc(c(Cl)c3)Oc3cc2cc(c3O[C@@H]2O[C@H](CO)[C@@H](O)[C@H](O)[C@H]2O[C@H]2C[C@](C)(N)[C@H](O)[C@H](C)O2)Oc2ccc(cc2Cl)[C@H]1O [vancomycin]
- vancomycin MIC: 8 µg/mL
